Measured values: patent US11685761B2, “Cyclic di-nucleotide compounds as sting agonists” (Merck Sharp & Dohme Corp., priority 2017, dated 2023)
Read-outs that look alike come from different tables or passages of the source.

Key:
[1] = system: IFN-β secretion from THP1 cells; experiment: IFN-β secretion in THP1 cell culture (5 h); format: cell-based, human; conditions: for activation at 30 µM: Homo sapiens, THP-1, 5 h, read-out: % Effect at 30 μM relative to 2′3′-cGAMP
Procedure: The ability of compounds to stimulate the secretion of interferon-beta from THP1 cells was measured using a human IFN-β AlphaLISA kit (Perkin Elmer, Cat. No. AL265F). The basic protocol is as follows:
The cell viability and count was ascertained using a Beckman Coulter V-Cell XR cell counter. The cell suspension was centrifuged at 200×g for 5 min at RT. Cells were resuspended to a density of 0.8×10^6/mL in 37° C. assay medium. Subsequent liquid transfers were performed using either a Matrix electronic multichannel pipette or an Agilent Bravo Automated Liquid Handling Platform.
The assay was started by dispensing 40 μL of the previously prepared cell suspension into the wells of the plate containing compounds. After 5 h incubation at 37° C., 5% CO2 in a humidified atmosphere, the plate of cells and compounds was centrifuged at 200×g for 5 min at RT. […] To these supernatant-containing wells was added 10 μL of 5× Anti-Analyte Acceptor beads (50 μg/mL of AlphaLISA HiBlock Buffer) and incubated for 30 min at RT while shaking on an orbital plate shaker. To each well was added 10 μL of 5× Biotinylated Antibody Anti-analyte (5 nM in AlphaLISA HiBlock Buffer) and incubated on an orbital plate shaker for 60 min at RT or overnight at 4° C. To each well was added 25 μL of 2× SA-Donor beads (80 μg/mL in AlphaLISA HiBlock Buffer) and incubated for 30-45 min at RT in the dark while shaking on an orbital plate shaker. The plate was then read on a Perkin Elmer Envision (λex680 nm, λem=570 nm). The percent effect of the AlphaLISA signal at each compound concentration was calculated based on 30 uM cGAMP positive controls and 0.3% DMSO negative controls. The plot of percent effect versus the log of compound concentration was fit with a 4-parameter concentration response equation to calculate EC50 values.
Compounds of the disclosure were evaluated for IFN-β secretion in THP1 cell culture as described above.

full-length HAQ STING = target: T1, full-length HAQ STING (Homo sapiens, UniProt Q86WV6, G230A/H232R/R293Q/R71H); experiment: 3H-cGAMP filtration binding assay (HAQ STING); conditions: competition with tritiated cGAMP ligand; T. ni cell membranes overexpressing full-length HAQ STING
T1 construct: made in house; host or cells: Trichoplusia ni (Hi-Five) insect cells, baculovirus generated in Sf21; crude membranes
T1 sequence (Q86WV6 with tags, fused parts or gaps R71H/G230A/H232R/R293Q): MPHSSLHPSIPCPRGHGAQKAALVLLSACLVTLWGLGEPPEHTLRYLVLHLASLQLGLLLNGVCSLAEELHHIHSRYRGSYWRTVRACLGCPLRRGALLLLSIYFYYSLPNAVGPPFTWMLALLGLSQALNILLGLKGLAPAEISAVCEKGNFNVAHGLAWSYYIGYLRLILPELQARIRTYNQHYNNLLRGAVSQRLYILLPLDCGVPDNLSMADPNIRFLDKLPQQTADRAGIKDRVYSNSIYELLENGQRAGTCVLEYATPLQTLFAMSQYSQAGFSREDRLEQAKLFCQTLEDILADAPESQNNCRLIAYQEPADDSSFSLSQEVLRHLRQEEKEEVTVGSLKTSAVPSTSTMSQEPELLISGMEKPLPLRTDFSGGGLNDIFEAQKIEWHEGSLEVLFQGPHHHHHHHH
Excerpt: The ability of compounds to bind STING is quantified by the ability to compete with tritiated cGAMP ligand for human STING receptor membrane using a radioactive filter-binding assay. The binding assay employs STING receptor obtained from Hi-Five cell membranes overexpressing full-length HAQ STING prepared in-house and tritiated cGAMP ligand also purified in-house.
The ability of compounds to bind STING is quantified by their ability to compete with tritiated cGAMP ligand for human STING receptor membrane using a radioactive filter-binding assay. The binding assay employs STING receptor obtained from Trichoplusia ni cell membranes (T. ni; Expression Systems, cat #94-002F, www.expressionsystems.com) overexpressing full-length HAQ STING and tritiated cGAMP ligand.
The basic HAQ STING filtration assay protocol is as follows:
The compounds were serially titrated by the Hamilton STARPlus CORE in a 96-well plate (Greiner, #651201) using a 1:3 ten-point dose response format. […] 148 uL of prepared membrane was then manually added to each well of a 96-well deep-well polypropylene plate (Fisher Scientific, #12-566-121). Following membrane addition, 2 uL of either titrated test compound, DMSO control (Sigma #276855), or cold cGAMP control was added to the appropriate wells using a BIOMEK FX. Compound and membrane then preincubated for 60 min at RT to allow compound binding to equilibrate. Following equilibration, 8 nM of [^3H] c-GAMP ligand was prepared by diluting into assay buffer, and 50 uL of this working stock was then manually added to each well of the assay plate. Plates were then incubated at RT for 60 min, and the contents of each assay plate were then filtered through a 96-well GF/B filter plate (PerkinElmer, #6005250) using a TOMTEC MACH III Cell Harvester equipped with 20 mM HEPES buffer (Fisher Scientific, #BP299500). The filter plates were then dried at 55° C. for 30 min using a pressurized oven before 30 uL of ULTIMA GOLD F scintillate was added to each well. Tritium levels for each reaction well were then measured using a PerkinElmer TopCount plate reader.
After normalization to controls, the percent activity for each compound concentration was calculated by measuring the amount of remaining radioactivity. The plot of percent activity versus the log of compound concentration was fit with a 4-parameter dose response equation to calculate EC50 values.

[2] = THP1 cells, 5 h incubation, compound at 30 μM, 30 uM cGAMP = 100%

Row | SMILES | % Effect at 30 μM relative to 2′3′-cGAMP [1] [%] | EC50 (full-length HAQ STING) [nM] | activation at 30 µM [1, 2] [%] | % Effect at 30 μM relative to 2′3′-cGAMP [1, 2] [%]
1 | Nc1nc2c(ncn2[C@@H]2O[C@@H]3COP(=O)(O)O[C@H]4C[C@H](n5ccc6c(=O)[nH]cnc65)O[C@@H]4COP(=O)(S)O[C@@H]2C3)c(=O)[nH]1 (stereo partly drawn) [Example 54, 2-amino-9-[(5S,7R,8R,12aR,14R,15aS)-2-hydroxy-2,10-dioxido-14-(4-oxo-3,4-dihydro-7H-pyrrolo[2,3-d]pyrimidin-7-yl)-10-sulfanyloctahydro-12H-5,8-methanofuro[3,2-l][1,3,6,9,11,2,10]pentaoxadiphosphacyclotetradecin-7-yl]-1,9-dihydro-6H-purin-6-one] | 68 | 12 |  | 
2 | Nc1nc2c(ncn2[C@@H]2O[C@@H]3COP(=O)(S)O[C@H]4[C@H](F)[C@H](n5ccc6c(=O)[nH]cnc65)O[C@@H]4COP(=O)(S)O[C@@H]2[C@@H]3F)c(=O)[nH]1 (single isomer, unassigned) [Example 39] |  | 1 | 166 | 
3 | Nc1ncnc2c1ncn2[C@@H]1S[C@@H]2CO[P@@](=O)(S)O[C@@H]3[C@H](O)[C@@H](CO[P@@](=O)(S)O[C@H]2[C@H]1O)O[C@H]3n1ccc(=O)n2ccnc12 (single isomer, unassigned) [Example 10] |  | 3 | 183 | 
4 | Nc1ncnn2c([C@H]3C[C@@H]4O[P@@](=O)(S)OC[C@H]5O[C@@H](n6ccc(=O)n7ccnc67)[C@H](O[P@](=O)(S)OC[C@H]4O3)[C@@H]5O)cnc12 [Example 7, 8-[(2S,5R,7R,8R,10R,12aR,14R,15aS,16R)-14-(4-aminoimidazo[2,1-f][1,2,4]triazin-7-yl)-16-hydroxy-2,10-dioxido-2,10-disulfanyl-octahydro-12H-5,8-methanofuro[3,2-l][1,3,6,9,11,2,10]pentaoxadiphosphacyclotetradecin-7-yl]imidazo [1,2-a]pyrimidin-5(8H)-one] |  | 2 | 140 | 
5 | Nc1nc2c(ncn2[C@@H]2O[C@@H]3COP(=O)(S)O[C@H]4[C@@H](O)[C@H](n5cnc6c(=O)[nH]c7nccn7c65)O[C@@H]4COP(=O)(S)O[C@@H]2[C@@H]3F)c(=O)[nH]1 (single isomer, unassigned) [Example 32] |  | 14 |  | 141
6 | Nc1ncnc2c1ncn2[C@@H]1O[C@@]23CO[C@@H]1[C@@H]2OP(=O)(S)OC[C@H]1O[C@@H](n2ccc(=O)n4ccnc24)[C@H](OP(=O)(S)OC3)[C@@H]1O (stereo partly drawn) [Example 6, 8-[(5R,7R,8R,12aR,14R,15R,15aS,18R)-14-(6-amino-9H-purin-9-yl)-18-hydroxy-2,10-dioxido-2,10-disulfanylhexahydro-14H-15,12a-(epoxymethano)-5,8-methanofuro[3,2-l] [1,3,6,9,11,2,10]pentaoxadiphosphacyclotetradecin-7(12H)-yl]imidazo[1,2-a]pyrimidin-5(8H)-one] |  | 28 | 145 | 
7 | Nc1ncnc2c1ncn2[C@@H]1O[C@@H]2COP(=O)(S)O[C@H]3[C@H](F)[C@H](n4ccc5c(=O)[nH]cnc54)O[C@@H]3COP(=O)(S)O[C@@H]1C2 (single isomer, unassigned) [Example 47] |  | 460 |  | 13
8 | Nc1ccnc2c1nnn2[C@H]1C[C@@H]2OP(=O)(S)OC[C@H]3O[C@@H](n4ccc(=O)n5ccnc45)[C@H](OP(=O)(S)OC[C@H]2O1)[C@@H]3O (stereo partly drawn) [Example 18, 8-[(5R,7R,8R,12aR,14R,15aS,16R)-14-(7-amino-3H-[1,2,3]triazolo[4,5-b]pyridin-3-yl)-16-hydroxy-2,10-dioxido-2,10-disulfanyloctahydro-12H-5,8-methanofuro[3,2-l][1,3,6,9,11,2,10]pentaoxadiphosphacyclotetradecin-7-yl]imidazo[1,2-a]pyrimidin-5(8H)-one] |  | 126 | 124 | 
9 | Nc1nc2c(ncn2[C@@H]2O[C@@H]3COP(=O)(S)O[C@H]4[C@@H](O)[C@H](n5ccc(=O)n6ccnc56)O[C@@H]4COP(=O)(S)O[C@@H]2[C@@H]3F)c(=O)[nH]1 (stereo partly drawn) [Example 31, 2-amino-9-[(5R,7R,8S,12aR,14R,15R,15aS,16R)-16-fluoro-15-hydroxy-2,10-dioxido-14-(5-oxoimidazo [1,2-a]pyrimidin-8(5H)-yl)-2,10-disulfanyloctahydro-12H-5,8-methanofuro[3,2-l][1,3,6,9,11,2,10]pentaoxadiphosphacyclotetradecin-7-yl]-1,9-dihydro-6H-purin-6-one] |  | 16 | 28 | 
10 | Nc1ncnn2c([C@H]3C[C@@H]4O[P@](=O)(S)OC[C@H]5O[C@@H](n6ccc(=O)n7ccnc67)[C@H](O[P@@](=O)(S)OC[C@H]4O3)[C@@H]5O)cnc12 (single isomer, unassigned) [Example 9] |  | 23 | 80 | 
11 | Nc1ncnc2c1ncn2[C@@H]1O[C@@]23CO[C@@H]1[C@@H]2OP(=O)(S)OC[C@H]1O[C@@H](n2cnc4c(=O)n5cc[nH]c5nc42)[C@H](OP(=O)(S)OC3)[C@@H]1F (single isomer, unassigned) [Example 25] |  | 1 |  | 131
12 | Nc1nc2c(ncn2[C@@H]2O[C@@H]3COP(=O)(S)O[C@H]4C[C@H](n5ccc6c(=O)[nH]cnc65)O[C@@H]4COP(=O)(S)O[C@@H]2[C@@H]3F)c(=O)[nH]1 (single isomer, unassigned) [Example 35] | 98 | 11 |  | 
13 | Nc1ncnc2c1ncn2[C@@H]1S[C@@H]2CO[P@@](=O)(S)O[C@@H]3[C@H](O)[C@@H](CO[P@](=O)(S)O[C@H]2[C@H]1O)O[C@H]3n1ccc(=O)n2ccnc12 (single isomer, unassigned) [Example 12] |  | 156 | 123 | 
14 | Nc1ncnc2c1nnn2[C@@H]1O[C@@H]2COP(=O)(S)O[C@@H]3C[C@@H](COP(=O)(S)O[C@H]2[C@@H]1F)O[C@H]3n1cnc2c(=O)n3cc[nH]c3nc21 (stereo partly drawn) [Example 28, 3-[(5S,7R,8R,12aR,14R,15S,15aR)-14-(7-amino-3H-[1,2,3]triazolo[4,5-d]pyrimidin-3-yl)-15-fluoro-2,10-dioxido-2,10-disulfanyloctahydro-12H-5,8-methanofuro[3,2-l] [1,3,6,9,11,2,10]pentaoxadiphosphacyclotetradecin-7-yl]-3,5-dihydro-9H-imidazo[1,2-a]purin-9-one] |  | 41 | 143 | 
15 | Nc1nc2c(ncn2[C@@H]2O[C@@H]3COP(=O)(S)O[C@H]4C[C@H](n5ccc6c(=O)[nH]cnc65)O[C@@H]4COP(=O)(S)O[C@@H]2[C@@H]3F)c(=O)[nH]1 (single isomer, unassigned) [Example 36] |  | 2 | 94 | 
